The values that follow come from the NIST ThermoML archive (doi:10.1016/j.jct.2007.10.004).

Series [1] is described as follows: Molar enthalpy of transition or fusion. The following applies: Crystal; DSC.
Series [2] is described as follows: Solid-liquid equilibrium temperature. The following applies: Crystal.
The conditions of series [3]: Crystal.

± gives the expanded uncertainty stated by the source.

With `O=C(O)C1CCCCC1` [cyclohexanecarboxylic acid], the “Molar enthalpy of transition or fusion” value in series [1] turned out to be 2.2 ± 0.0645 kcal/mol. The Solid-liquid equilibrium temperature in series [2] (800 kPa, visual observation) is recorded as 303.15 ± 0.26 K; in series [2] (31000 kPa, visual observation) it was 313.15 ± 0.52 K; in series [2] (63000 kPa, visual observation), 323.15 ± 0.9 K; in series [2] (92000 kPa, visual observation), 333.15 ± 1.3 K; in series [2] (121000 kPa, visual observation), 343.15 ± 1.7 K; in series [2] (150000 kPa, visual observation), 353.15 ± 2.1 K. Also, in series [3] (DTA), the Normal melting temperature worked out at 29.8 ± 0.5 °C.
For the compound `CC(=O)OC1CCCCC1` [cyclohexyl ethanoate], the “Molar enthalpy of transition or fusion” value in series [1] is 0.809 ± 0.0406 kcal/mol. In series [3] (DTA), the Normal melting temperature is -51.70 ± 0.4 °C.
Take `O=C(O)CC1CCCCC1` [cyclohexylethanoic acid]: in series [1], the “Molar enthalpy of transition or fusion” value was determined as 3.3 ± 0.086 kcal/mol. Further, the Normal melting temperature in series [3] (DTA) was 28.8 ± 0.4 °C.
As for `CC(=O)OCCC1CCCCC1` [cyclohexylethyl acetate], the Normal melting temperature in series [3] (DTA) was -51.70 ± 0.39 °C.
Turning to `CCCCCCCCO` [octan-1-ol], the Solid-liquid equilibrium temperature in series [2] (216000 kPa, Closed cell (Static) method) is 303.15 ± 1.7 K; in series [2] (268000 kPa, Closed cell (Static) method), 313.15 ± 1.9 K; in series [2] (329000 kPa, Closed cell (Static) method) it was 323.15 ± 2 K; in series [2] (400000 kPa, Closed cell (Static) method), 333.15 ± 2.2 K; in series [2] (480000 kPa, Closed cell (Static) method), 343.15 ± 2.3 K; in series [2] (569000 kPa, Closed cell (Static) method), 353.15 ± 2.6 K. Also, the Normal melting temperature in series [3] is -14.60 ± 0.62 °C.
